Measured values from US20170000133A1, “BENZOXABOROLE FUNGICIDES” (SYNGENTA PARTICIPATIONS AG, priority 2013, published 2017).

Experiments:
Phytophthora infestans = experiment: whole plant or invertebrate; assay type: in vivo; details: in Solanum lycopersicum, foliar, read-out: disease control
[1] = tested on: Puccinia recondita f. sp. tritici; experiment: Puccinia recondita f. sp. tritici / wheat / leaf disc preventative (brown rust); assay type: in vivo; details: foliar, wheat leaf segments cv Kanzler, inoculated 1 day after application, assessed 7-9 days after application, read-out: disease control
Text: 3. Puccinia recondita f. sp. tritici/Wheat/Leaf Disc Preventative (Brown Rust): Wheat leaf segments cultivated variety (cv) Kanzler were placed on agar in 24-well plates and sprayed with formulated test compound diluted in water at an application rate of 200 ppm. The leaf disks were inoculated with a spore suspension of the fungus 1 day after application.

Pythium ultimum = Pythium ultimum / liquid culture (seedling damping off); assay type: cell-based; details: Globisporangium ultimum; 200 ppm; potato dextrose broth, 24° C., 2-3 days after application; read-out: disease control (inhibition of growth determined photometrically)
Gaeumannomyces graminis = Gaeumannomyces graminis / liquid culture (take-all of cereals); assay type: cell-based; details: PDB potato dextrose broth, 24° C., 4-5 days after application, read-out: disease control (inhibition of growth determined photometrically)
In short: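 Cryo-stored mycelial fragments in potato dextrose broth exposed to compound in DMSO at 200 ppm. Incubated at 24 °C; growth inhibition read photometrically 4–5 days after application.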

[2] = tested on: Monographella nivalis (Microdochium nivale); experiment: Monographella nivalis (Microdochium nivale) / liquid culture (foot rot cereals); assay type: cell-based; details: PDB potato dextrose broth, 24° C., 4-5 days after application, read-out: disease control (inhibition of growth determined photometrically)
Plasmopara viticola = experiment: whole plant or invertebrate; assay type: in vivo; details: foliar, read-out: disease control
[3] = tested on: Botryotinia fuckeliana (Botrytis cinerea); experiment: Botryotinia fuckeliana (Botrytis cinerea) / liquid culture (gray mould); assay type: cell-based; details: Vogels broth, 24° C., 3-4 days after application, read-out: disease control (inhibition of growth determined photometrically)
Method: 10. Botryotinia fuckeliana (Botrytis cinerea)/Liquid Culture (Gray Mould): Conidia of the fungus from cryogenic storage were directly mixed into nutrient broth (Vogels broth). After placing a DMSO solution of test compound into a 96-well microtiter plate at an application rate of 200 ppm, the nutrient broth containing the fungal spores was added. The test plates were incubated at 24° C. and the inhibition of growth was determined photometrically 3-4 days after application.

[4] = tested on: Mycosphaerella arachidis (Cercospora arachidicola); experiment: Mycosphaerella arachidis (Cercospora arachidicola) / liquid culture (early leaf spot); assay type: cell-based; details: PDB potato dextrose broth, 24° C., 4-5 days after application, read-out: disease control (inhibition of growth determined photometrically)
In short: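 Conidia from cryogenic storage mixed into potato dextrose broth and added to compound at 200 ppm in DMSO. Incubation at 24° C.; growth inhibition read photometrically 4-5 days after application.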

[5] = tested on: Mycosphaerella graminicola (Septoria tritici); experiment: Mycosphaerella graminicola (Septoria tritici) / liquid culture (Septoria blotch); assay type: cell-based; details: Zymoseptoria tritici, PDB potato dextrose broth, 24° C., 4-5 days after application, read-out: disease control (inhibition of growth determined photometrically)
In short: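 Conidia from cryostorage were suspended in potato dextrose broth and added to test compound in DMSO at 200 ppm in microtiter wells. Plates were incubated at 24° C and growth inhibition measured photometrically 4-5 days after application.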

Fusarium culmorum = experiment: microbe, parasite or virus in culture; assay type: cell-based; details: read-out: disease control (inhibition of growth determined visually)
[6] = tested on: Thanatephorus cucumeris (Rhizoctonia solani); experiment: Thanatephorus cucumeris (Rhizoctonia solani) / liquid culture (foot rot, damping-off); assay type: cell-based; details: PDB potato dextrose broth, 24° C., 3-4 days after application, read-out: disease control (inhibition of growth determined photometrically)
In short: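 Mycelial fragments from fresh liquid culture were suspended in potato dextrose broth and added to compound in DMSO at 200 ppm. After 3-4 days at 24 °C, growth inhibition was measured photometrically.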

[7] = tested on: Glomerella lagenarium (Colletotrichum lagenarium); experiment: Glomerella lagenarium (Colletotrichum lagenarium) / liquid culture (anthracnose); assay type: cell-based; details: Colletotrichum orbiculare, PDB potato dextrose broth, 24° C., 3-4 days after application, read-out: disease control (inhibition of growth measured photometrically)
In short: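 Conidia of G. lagenarium from cryogenic storage were suspended in potato dextrose broth and added to test compound in DMSO at 200 ppm. Plates were incubated at 24° C, and growth inhibition was read photometrically 3-4 days after application.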

| Structure (SMILES) | pest or weed control at 200 ppm (Phytophthora infestans) [%] | pest or weed control at 200 ppm [1] [%] | inhibition at 200 ppm (Pythium ultimum) [%] | inhibition at 200 ppm (Gaeumannomyces graminis) [%] | inhibition at 200 ppm [2] [%] | pest or weed control at 200 ppm (Plasmopara viticola) [%] | inhibition at 200 ppm [3] [%] | inhibition at 200 ppm [4] [%] | inhibition at 200 ppm [5] [%] | inhibition at 200 ppm (Fusarium culmorum) [%] | inhibition at 200 ppm [6] [%] | melting point [°C] | inhibition at 200 ppm [7] [%] |
| --- | --- | --- | --- | --- | --- | --- | --- | --- | --- | --- | --- | --- | --- |
| O=C(OCc1cccc2ccccc12)c1cc2c(cc1Cl)COB2O [Compound 207] | ≥ 80 | ≥ 80 | ≥ 80 | ≥ 80 | ≥ 80 | – | – | – | – | – | – | – | – |
| CC#CCOC(=O)c1ccc2c(c1)B(O)OC2 [Compound 323] | ≥ 80 | – | ≥ 80 | ≥ 80 | ≥ 80 | ≥ 80 | ≥ 80 | ≥ 80 | ≥ 80 | ≥ 80 | ≥ 80 | 154 to 155 | – |
| O=C(OCCc1ccc(Cl)cc1Cl)c1ccc2c(c1)B(O)OC2 [Compound 312] | – | ≥ 80 | – | ≥ 80 | ≥ 80 | – | – | – | – | – | – | – | – |
| C[Si](C)(C)/C=C/COC(=O)c1cc2c(cc1Cl)COB2O [Compound 216] | – | – | – | ≥ 80 | ≥ 80 | – | ≥ 80 | ≥ 80 | ≥ 80 | – | – | – | – |
| O=C(OCc1cccc(F)c1)c1cc2c(cc1F)COB2O [Compound 434] | – | – | ≥ 80 | ≥ 80 | ≥ 80 | ≥ 80 | ≥ 80 | ≥ 80 | ≥ 80 | – | ≥ 80 | – | ≥ 80 |
| O=C(NCc1cccc(Cl)c1)c1cc2c(cc1Cl)COB2O [Compound 85] | ≥ 80 | – | ≥ 80 | ≥ 80 | – | ≥ 80 | – | – | – | – | – | 263 to 265 | – |
| O=C(NCc1ccccc1F)c1cc2c(cc1F)COB2O [Compound 107] | ≥ 80 | – | ≥ 80 | – | – | ≥ 80 | – | – | – | – | – | 175 to 177 | ≥ 80 |
| O=C(OCC1CCSCC1)c1cc2c(cc1F)COB2O [Compound 380] | – | ≥ 80 | ≥ 80 | – | ≥ 80 | ≥ 80 | – | ≥ 80 | – | – | ≥ 80 | – | ≥ 80 |
| O=C(OCC#Cc1ccccc1)c1cc2c(cc1F)COB2O [Compound 422] | – | – | ≥ 80 | ≥ 80 | ≥ 80 | – | ≥ 80 | ≥ 80 | ≥ 80 | ≥ 80 | ≥ 80 | – | – |
| O=C(OCc1ccsc1)c1cc2c(cc1F)COB2O [Compound 441] | – | ≥ 80 | ≥ 80 | – | ≥ 80 | ≥ 80 | – | ≥ 80 | ≥ 80 | ≥ 80 | ≥ 80 | 128 to 130 | ≥ 80 |
| O=C(OCCc1c(Cl)cccc1Cl)c1ccc2c(c1)B(O)OC2 [Compound 373] | – | – | – | ≥ 80 | ≥ 80 | ≥ 80 | ≥ 80 | – | ≥ 80 | ≥ 80 | – | – | – |
| O=C(OCCc1ccc(Cl)cc1Cl)c1cc2c(cc1F)COB2O [Compound 370] | – | ≥ 80 | ≥ 80 | ≥ 80 | ≥ 80 | – | – | – | ≥ 80 | – | ≥ 80 | – | – |
| Cc1cccc(Cl)c1NC(=O)c1cc2c(cc1Cl)COB2O [Compound 114] | ≥ 80 | – | – | – | ≥ 80 | ≥ 80 | – | – | ≥ 80 | ≥ 80 | – | – | ≥ 80 |
| C[Si](C)(C)CCCOC(=O)c1cc2c(cc1Cl)COB2O [Compound 194] | – | – | – | ≥ 80 | ≥ 80 | – | ≥ 80 | ≥ 80 | ≥ 80 | – | – | – | ≥ 80 |
| C[Si](C)(C)COC(=O)c1ccc2c(c1)B(O)OC2 [Compound 367] | – | ≥ 80 | ≥ 80 | ≥ 80 | ≥ 80 | ≥ 80 | – | – | ≥ 80 | – | ≥ 80 | – | ≥ 80 |
| CCCCCCCCCCOC(=O)c1ccc2c(c1)B(O)OC2 [Compound 331] | – | ≥ 80 | ≥ 80 | – | – | – | – | ≥ 80 | ≥ 80 | – | ≥ 80 | – | – |
| C#CC(CC)OC(=O)c1cc2c(cc1Cl)COB2O (centres unmarked) [Compound 201] | – | – | ≥ 80 | ≥ 80 | ≥ 80 | ≥ 80 | ≥ 80 | – | ≥ 80 | – | – | – | ≥ 80 |
| COC(=O)C(OC(=O)c1ccc2c(c1)B(O)OC2)c1ccccc1 (centres unmarked) [Compound 349] | – | ≥ 80 | ≥ 80 | ≥ 80 | ≥ 80 | ≥ 80 | – | – | – | – | – | – | ≥ 80 |
| C#CC(OC(=O)c1cc2c(cc1Cl)COB2O)c1ccccc1 (centres unmarked) [Compound 211] | ≥ 80 | – | ≥ 80 | – | ≥ 80 | ≥ 80 | – | – | ≥ 80 | – | ≥ 80 | – | ≥ 80 |
| O=C(OCc1ccsc1)c1ccc2c(c1)B(O)OC2 [Compound 50] | – | ≥ 80 | ≥ 80 | ≥ 80 | ≥ 80 | ≥ 80 | – | ≥ 80 | ≥ 80 | ≥ 80 | ≥ 80 | 130 to 132 | ≥ 80 |
| CCCCCCCCCCOC(=O)c1cc2c(cc1F)COB2O [Compound 391] | – | ≥ 80 | ≥ 80 | ≥ 80 | – | – | – | ≥ 80 | – | – | ≥ 80 | – | – |
| COC(=O)c1sccc1NC(=O)c1cc2c(cc1Cl)COB2O [Compound 169] | – | ≥ 80 | – | – | ≥ 80 | ≥ 80 | – | – | ≥ 80 | – | – | 267 to 269 | ≥ 80 |
| Cc1cccc(Cl)c1NC(=O)c1cc2c(cc1F)COB2O [Compound 150] | ≥ 80 | – | ≥ 80 | – | ≥ 80 | – | – | – | – | ≥ 80 | – | 212 to 214 | ≥ 80 |
| COC(=O)c1sccc1NC(=O)c1cc2c(cc1F)COB2O [Compound 186] | ≥ 80 | – | ≥ 80 | – | ≥ 80 | ≥ 80 | – | – | – | – | – | 302 to 304 | – |
| Cc1ccc(-c2csc(NC(=O)c3cc4c(cc3F)COB4O)n2)cc1 [Compound 188] | – | ≥ 80 | – | – | ≥ 80 | ≥ 80 | – | – | – | – | – | – | – |
